Source: patent US7361682B2, “Indole derivatives as H3 inverse agonists” (Hoffmann-La Roche Inc., priority 2004, dated 2008)

Biological target: T1, histamine 3 receptor (H3R) (Homo sapiens, UniProt Q9Y5N1)
T1 construct: expressed in transfected cells; host or cells: CHO cells
Test: Binding assay with 3H-(R)α-methylhistamine (competition binding, membranes of human HR3-CHO cell line)
Settings: competition against 3H(R)α-Methylhistamine (1 nM), membrane of the human HR3-CHO cell line; Ki calculated from IC50 by Cheng-Prusoff equation
Protocol: Binding assay with ^3H-(R)α-methylhistamine
Saturation binding experiments were performed using HR^3—CHO membranes prepared as described in Takahashi, K, Tokita, S., Kotani, H. (2003) J. Pharmacol. Exp. Therapeutics 307, 213-218.
An appropriate amount of membrane (60 to 80 μg protein/well) was incubated with increasing concentrations of ^3H(R)α-Methylhistamine di-hydrochloride (0.10 to 10 nM). Non specific binding was determined using a 200 fold excess of cold (R)α-Methylhistamine dihydrobromide (500 nM final concentration). The incubation was carried out at room temperature (in deep-well plates shaking for three hours). The final volume in each well was 250 μl. The incubation was followed by rapid filtration on GF/B filters (pre-soaked with 100 μl of 0.5% PEI in Tris 50 mM shaking at 200 rpm for two hours). The filtration was made using a cell-harvester and the filter plates were then washed five times with ice cold washing buffer containing 0.5 M NaCl. After harvesting, the plates were dried at 55° C. for 60 min, then we added scintillation fluid (Microscint 40, 40 microl in each well) and the amount of radioactivity on the filter was determined in Packard top-counter after shaking the plates for two hours at 200 rpm at room temperature.
Binding Buffer: 50 mM Tris-HCl pH 7.4 and 5 mM MgCl2×6H2O pH 7.4. Washing Buffer: 50 mM Tris-HCl pH 7.4 and 5 mM MgCl2×6H2O and 0.5 M NaCl pH 7.4.
Indirect measurement of affinity of H3R inverse agonists: twelve increasing concentrations (ranging from 10 μM to 0.3 nM) of the selected compounds were always tested in competition binding experiments using membrane of the human HR3—CHO cell line. An appropriate amount of protein, e.g. approximately 500 cpm binding of RAMH at Kd, were incubated for 1 hour at room temperature in 250 μl final volume in 96-well plates in presence of ^3H(R)α-Methylhistamine (1 nM final concentration=Kd). […]
All compounds were tested at a single concentration in duplicates. […] Ki's were calculated from IC50 based on Cheng-Prusoff equation (Cheng, Y, Prusoff, W H (1973) Biochem Pharmacol 22, 3099-3108).

T1 sequence (Q9Y5N1 whole entry): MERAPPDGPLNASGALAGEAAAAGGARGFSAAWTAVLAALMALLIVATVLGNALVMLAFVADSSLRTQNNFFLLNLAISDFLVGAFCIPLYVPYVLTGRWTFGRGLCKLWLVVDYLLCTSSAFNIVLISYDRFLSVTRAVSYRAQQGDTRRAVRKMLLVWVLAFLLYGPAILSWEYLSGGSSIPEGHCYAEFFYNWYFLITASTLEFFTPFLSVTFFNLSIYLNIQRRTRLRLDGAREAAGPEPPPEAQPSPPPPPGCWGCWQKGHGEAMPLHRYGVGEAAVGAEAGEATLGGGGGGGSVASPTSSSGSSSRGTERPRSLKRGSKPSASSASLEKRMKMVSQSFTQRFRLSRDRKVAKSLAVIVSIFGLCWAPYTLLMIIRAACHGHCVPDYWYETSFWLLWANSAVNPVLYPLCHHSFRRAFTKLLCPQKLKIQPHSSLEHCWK

| Ki | Compound |
| --- | --- |
| 0.023 µM | CC(C)N1CCC(Oc2ccc3[nH]c(C(=O)N4CCOCC4)cc3c2)C1 (stereo not drawn) [Example 2, [5-(1-Isopropyl-pyrrolidin-3-yloxy)-1H-indol-2-yl]-morpholin-4-yl-methanone] |
| 0.077 µM | CC(C)N1CCN(C(=O)c2cc3cc(OCCC4CCCN4C)ccc3[nH]2)CC1 (stereo not drawn) [Example 117, (4-Isopropyl-piperazin-1-yl)-{5-[2-(1-methyl-pyrrolidin-2-yl)-ethoxy]-1H-indol-2-yl}-methanone] |
| 0.093 µM | CC(C)N1CCC(Oc2ccc3cc(C(=O)N4CCSCC4)[nH]c3c2)CC1 [Example 140, [6-(1-isopropyl-piperidin-4-yloxy)-1H-indol-2-yl]-thiomorpholin-4-yl-methanone] |
